As usually defined, the IC50 is the concentration that gives 50% inhibition.

Assay type in all cases: cell-based
The subject of one experiment is YAP-TEAD interaction. The experiment can be described thus: SK-HEP-1 reporter assay (8x TEAD responsive elements driving NanoLuc luciferase). The conditions noted are these: Homo sapiens, SK-HEP1, SK-HEP-1 cells, 24 hour incubation. The procedure:
To identify inhibitors of YAP-TEAD interaction, 8× TEAD responsive elements driving the NanoLuc® luciferase gene were stably integrated into SK-HEP-1 cells (ECACC #: 91091816).
For the assay, cells were treated in duplicates with the test compounds in a 10-point dose, with the top concentration starting at 30 μM (final concentration in assay). After a 24 hour incubation at 37° C., 95% rH, and 5% CO2, a luciferase substrate/lysis reagent mix (NanoGlo™, Promega) was added to the cells, allowing the quantification of cellular luciferase activity.
Cell Media: The cells were cultured in the following media: MEM, +10% FBS, +1× GlutaMAX, +1 mM Sodium-Pyruvate, +100 μM Non-essential amino acids, +0.1 mg/ml Hygromycin. The media used for the assay was: MEM (w/o Phenol Red), +10% FBS, +1× GlutaMAX, +1 mM Sodium-Pyruvate, +100 μM Non-essential amino acids, +0.5% Pen/Strep
(§1) Reagents: The reagents used are listed below:
Cell culture: The cells were examined using an inverted microscope to check for health and cell density. To dissociate adherent cells, the monolayer of cells was washed once with pre-warmed PBS. After removing the PBS, 3 ml pre-warmed Accutase® was added to a F75 flask, dispersed evenly and the flask was allowed to sit in incubator for ˜4-5 minutes.
(§2) When a single cell suspension was obtained, 7 ml of prewarmed growth media was added and resuspended with the cells. The cell suspension was transferred to a sterile 15 ml conical centrifuge tube, and spun for 5 min at 300×g, RT. The supernatant was discarded and the pellet was resuspended in 10 ml of pre-warmed growth media.
(§3) The total cell count was determined, and 20 μl of the desired cell number was added to each well of a 384 well plate using a Multidrop Combi. The plates were then incubated for 24 hours at 37° C., 95% rH, and 5% CO2.
(§4) Compound treatment: 24 hours after seeding, the cells were treated with compounds.
(§5) A 1:333 dilution of compounds, diluted in DMSO, was made to get a final concentration of 0.3% DMSO per well. To transfer the compounds to the assay plate, 120 nl was shot from Labcyte low dead volume plates to the cell plates containing 20 μl media/well with the ECHO 555 liquid handling system. After treatment, the cells were fed with 20 μl fresh pre-warmed assay media using a Multidrop combi.
The assay plates were then incubated for another 24 h at 37° C., 95% rH, and 5% CO2.
Luciferase readout: 24 h after treatment, the plates were taken out of the incubator and were allowed to equilibrate to RT. 30 μl of NanoGlo® reagent was added to the plates in the dark. Plates were shaken for 20 min on a Teleshake (˜1500 rpm) in the dark. The luminescence was then measured using an EnVision microplate reader. The IC50 values were generated using Genedata Screener®.
In general terms: A reporter such as luciferase makes a cellular process visible.

In a further experiment the test system is NCI-H226 cells. The experiment can be described thus: Viability assay in NCI-H226 (Yap-dependent) cells, CyQUANT. To be noted: Homo sapiens, NCI-H226 YAP dependent cell line, 96 hour incubation. The procedure: (§6) Viability Assay in NCI-H226 (Yap-Dependent) and SW620 Yap KO (Yap Independent) Cells
(§7) The ability of YAP-TEAD inhibitors to inhibit tumor cell growth was evaluated using two different cell lines: NCI-H226, which is a YAP dependent cell line, and SW620 cells, where YAP and TAZ were knocked out using CRISPR to generate a YAP independent cell line.
(§8) For the assay, cells were treated in duplicates with the test compounds in a 10-point dose, 1:3 dilution steps, with the top concentration starting at 30 μM (final concentration in assay). After a 96 hour incubation at 37° C., 95% rH, and 5% CO2, a cell-permeant DNA-binding dye that stains only healthy cells (CyQUANT®, Promega) was added to the cells, allowing the quantification of cell viability.
(§9) Cell Media: The NCI-H226 cells were cultured in the following media: RPMI 1640, +10% FBS, +1× GlutaMAX, +10 mM HEPES, +0.5% Pen/Strep. The SW620-KO cells were cultured in the following media: DMEM/F-12, +10% FBS, +1× GlutaMAX, +10 mM HEPES, +0.5% Pen/Strep.
as §1
(§10) Cell culture: The cells were examined using an inverted microscope to check for health, cell density, etc. To dissociate adherent cells, the monolayer of cells was washed once with pre-warmed PBS. After removing the PBS, 3 ml pre-warmed Accutase was added to a F75 flask, dispersed evenly and the flask was allowed to sit in incubator for ˜4-5 minutes.
as §2, §3, §4, §5
(§11) The assay plates were then incubated for 96 h at 37° C., 95% rH, and 5% CO2.
(§12) 96 h after treatment 30 μl of CyQuant® reagent was added to the assay plates using a Multidrop combi in the dark. The plates were then incubated for 1 hour at 37° C., 95% rH and 5% CO2. Thereafter, the assay plates were removed from the incubator and allowed to equilibrate to RT for 30 min in the dark without lid. Finally, they were measured using an EnVision microplate reader with a FITC bottom read program.

The test system of the next experiment is SW620 Yap KO cells. Nature of the experiment: Viability assay in SW620 Yap KO (Yap independent) cells, CyQUANT. The conditions noted are these: Homo sapiens, SW-620, SW620 YAP and TAZ knocked out (YAP independent), 96 hour incubation. How it is done:
as §6, §7, §8, §9, §1, §10, §2, §3, §4, §5, §11, §12

Where [1] appears, read: number, or n.d. (x) = not detectable below threshold x.
The mark [2] stands for this setting: n.d. (x) = not detectable below threshold x.

`COCCC(CO)NC(=O)c1cc2c3cn(C)nc3n(-c3ccc(C(F)(F)F)cc3)c2s1` (racemic) [Compound 63, N-(1-hydroxy-4-methoxybutan-2-yl)-4-methyl-7-[4-(trifluoromethyl)phenyl]-9-thia-4,5,7-triazatricyclo[6.3.0.0^2,6]undeca-1(8),2,5,10-tetraene-10-carboxamide]: the results for the IC50 in the experiment on YAP-TEAD interaction (setting [1]), with NCI-H226 cells (group symbols) and with SW620 Yap KO cells (setting [2]) were more than 9500 nM, 1 to 100 nM and more than 3000 nM, respectively.

With `Cn1cc2c3cc(C(=O)N[C@@H](CCO)c4cncs4)sc3n(-c3ccc(C(F)(F)F)cc3)c2n1` (single isomer, unassigned) [Compound 41], the figures for the IC50 with YAP-TEAD interaction (group symbols), in the experiment with NCI-H226 cells (group symbols) and in the experiment on SW620 Yap KO cells (setting [2]) were 100 to 10000 nM, 100 to 1000 nM and more than 3000 nM, respectively.

In the case of `Cn1cc2c3cc(C(=O)N[C@H](CCO)c4cncs4)sc3n(-c3ccc(C(F)(F)F)cc3)c2n1` (single isomer, unassigned) [Compound 42], the half-maximal inhibitory concentration (IC50) is more than 9500 nM with YAP-TEAD interaction (setting [1]), 1000 to 10000 nM in the experiment with NCI-H226 cells (group symbols) and 1000 to 10000 nM in the experiment with SW620 Yap KO cells (group symbols).

Take `COCC[C@@H](CO)NC(=O)c1cc2c3cn(C)nc3n(-c3ccc(C(F)(F)F)cc3)c2s1` (single isomer, unassigned) [Compound 59]: the 50% inhibitory concentration (IC50) in the experiment with YAP-TEAD interaction (setting [1]) is more than 300 nM; in the experiment with NCI-H226 cells (group symbols), 100 to 1000 nM.

As for `Cn1cc2c3cc(C(=O)N=[S@@](C)(=O)CCCO)sc3n(-c3ccc(C(F)(F)F)cc3)c2n1` (single isomer, unassigned) [Compound 61], the concentration for half-maximal inhibition (IC50) with YAP-TEAD interaction (setting [1]) was more than 9500 nM; with NCI-H226 cells (group symbols), 100 to 1000 nM.

Take `Cn1cc2c3cc(C(=O)N[C@H](CCO)c4ccccn4)sc3n(-c3ccc(C(F)(F)F)cc3)c2n1` (single isomer, unassigned) [Compound 90]: the half-maximal inhibitory concentration (IC50) with NCI-H226 cells (printed number) was found to be 1500 nM.

`CNC(=O)c1cc2c(s1)c1cn(C)nc1n2-c1ccc(C(F)(F)F)cc1` [Compound 1, N,10-dimethyl-7-[4-(trifluoromethyl)phenyl]-3-thia-7,9,10-triazatricyclo[6.3.0.0^2,6]undeca-1(11),2(6),4,8-tetraene-4-carboxamide]: the IC50 in the experiment on YAP-TEAD interaction (group symbols) was 100 to 10000 nM; in the experiment on NCI-H226 cells (group symbols), more than 10000 nM.

In the case of `Cn1cc2c3sc(C(=O)O)cc3n(-c3ccc(C(F)(F)F)cc3)c2n1` [Compound 2, 10-methyl-7-[4-(trifluoromethyl)phenyl]-3-thia-7,9,10-triazatricyclo[6.3.0.0^2,6]undeca-1(11),2(6),4,8-tetraene-4-carboxylic acid], the IC50 in the experiment with YAP-TEAD interaction (group symbols) was 10 to 100 nM; with NCI-H226 cells (group symbols) it was 100 to 1000 nM.

For `Cn1nc2c3sc(C(=O)O)cc3n(-c3ccc(C(F)(F)F)cc3)c2n1` [Compound 3, 4-methyl-7-[4-(trifluoromethyl)phenyl]-11-thia-3,4,5,7-tetraazatricyclo[6.3.0.0^2,6]undeca-1(8),2,5,9-tetraene-10-carboxylic acid], the figures for the IC50 with YAP-TEAD interaction (group symbols) and in the experiment on NCI-H226 cells (group symbols) were 10 to 100 nM and 100 to 1000 nM, respectively.

`Cn1nc2c3sc(C(=O)NC(CO)c4ccccn4)cc3n(-c3ccc(C(F)(F)F)cc3)c2n1` (stereo not drawn) [Compound 4, N-[2-hydroxy-1-(pyridin-2-yl)ethyl]-4-methyl-7-[4-(trifluoromethyl)phenyl]-11-thia-3,4,5,7-tetraazatricyclo[6.3.0.0^2,6]undeca-1(8),2,5,9-tetraene-10-carboxamide]: the IC50 in the experiment on YAP-TEAD interaction (group symbols) was more than 10000 nM; in the experiment with NCI-H226 cells (group symbols), 1000 to 10000 nM.

For `CNC(=O)c1cc2c(s1)c1nn(C)nc1n2-c1ccc(C(F)(F)F)cc1` [Compound 5, N,4-dimethyl-7-[4-(trifluoromethyl)phenyl]-11-thia-3,4,5,7-tetraazatricyclo[6.3.0.0^2,6]undeca-1(8),2,5,9-tetraene-10-carboxamide], the concentration for half-maximal inhibition (IC50) in the experiment with YAP-TEAD interaction (group symbols) was more than 10000 nM; in the experiment with NCI-H226 cells (group symbols), 1000 to 10000 nM.

On to `CNC(=O)c1cc2c3cn(C)nc3n(-c3ccc(C(F)(F)F)cc3)c2s1` [Compound 32, N,4-dimethyl-7-[4-(trifluoromethyl)phenyl]-9-thia-4,5,7-triazatricyclo[6.3.0.0^2,6]undeca-1(8),2,5,10-tetraene-10-carboxamide], for which the IC50 in the experiment on YAP-TEAD interaction (group symbols) was 10 to 100 nM; in the experiment on NCI-H226 cells (group symbols) it was 1 to 100 nM.

On to `Cn1cc2c3cc(C(=O)N=S(C)(C)=O)sc3n(-c3ccc(C(F)(F)F)cc3)c2n1` [Compound 34, N-[dimethyl(oxo)-λ^6-sulfanylidene]-4-methyl-7-[4-(trifluoromethyl)phenyl]-9-thia-4,5,7-triazatricyclo[6.3.0.0^2,6]undeca-1(8),2,5,10-tetraene-10-carboxamide], for which the IC50 in the experiment with YAP-TEAD interaction (group symbols) is 100 to 10000 nM; in the experiment on NCI-H226 cells (group symbols), 100 to 1000 nM.

On to `Cn1cc2c3cc(C(=O)O)sc3n([C@H]3CC[C@@H](C(F)(F)F)CC3)c2n1` [Compound 51, 4-methyl-7-[(1s,4s)-4-(trifluoromethyl)cyclohexyl]-9-thia-4,5,7-triazatricyclo[6.3.0.0^2,6]undeca-1(8),2,5,10-tetraene-10-carboxylic acid], for which the values for the IC50 with YAP-TEAD interaction (group symbols) and in the experiment with SW620 Yap KO cells (setting [2]) were 100 to 10000 nM and more than 30000 nM, respectively.

On to `Cn1cc2c3cc(C(=O)NCCOCCOCCNC(=O)OC(C)(C)C)sc3n(-c3ccc(C(F)(F)F)cc3)c2n1` [Compound 88, tert-butyl N-(2-{2-[2-({4-methyl-7-[4-(trifluoromethyl)phenyl]-9-thia-4,5,7-triazatricyclo[6.3.0.0^2,6]undeca-1(8),2,5,10-tetraen-10-yl}formamido)ethoxy]ethoxy}ethyl)carbamate], for which the IC50 in the experiment with YAP-TEAD interaction (setting [1]) is more than 30000 nM; in the experiment with NCI-H226 cells (printed number), 88 nM.

`Cn1ccc(C(CO)NC(=O)c2cc3c4cn(C)nc4n(-c4ccc(C(F)(F)F)cn4)c3s2)n1` (stereo not drawn) [Compound 116, N-[2-hydroxy-1-(1-methyl-1H-pyrazol-3-yl)ethyl]-4-methyl-7-[5-(trifluoromethyl)pyridin-2-yl]-9-thia-4,5,7-triazatricyclo[6.3.0.0^2,6]undeca-1(8),2,5,10-tetraene-10-carboxamide] had an IC50 in the experiment with YAP-TEAD interaction (setting [1]) of more than 30000 nM.

Compound `Cn1cc2c3cc(C(=O)O)sc3n(-c3ccc(OC(F)F)cn3)c2n1` [Compound 127, 7-[5-(difluoromethoxy)pyridin-2-yl]-4-methyl-9-thia-4,5,7-triazatricyclo[6.3.0.0^2,6]undeca-1(8),2,5,10-tetraene-10-carboxylic acid] gave an IC50 in the experiment on YAP-TEAD interaction (group symbols) of 10 to 100 nM.

`C[C@H](CO)NC(=O)c1cc2c3cn(C)nc3n(-c3ccc(C(F)F)cn3)c2s1` [Compound 132, 7-[5-(difluoromethyl)pyridin-2-yl]-N-[(2R)-1-hydroxypropan-2-yl]-4-methyl-9-thia-4,5,7-triazatricyclo[6.3.0.0^2,6]undeca-1(8),2,5,10-tetraene-10-carboxamide]: the IC50 with YAP-TEAD interaction (setting [1]) was more than 300 nM.

Turning to `Cn1cc2c3sc(C(=O)NC4CC4)cc3n(-c3ccc(C(F)(F)F)cc3)c2n1` [compound 12], the half-maximal inhibitory concentration (IC50) in the experiment with YAP-TEAD interaction (group symbols) was more than 10000 nM.

The values are drawn from patent publication US20260159525A1, “TRICYCLIC HETEROCYCLES” (Merck Patent GmbH, priority 2021, published 2026).
